Columns and labels:
Format in all cases: in vivo, rat
Wistar rats [1] = assay: Acute survival study after LPS
Protocol: (§1) The animal experiment is approved by the Animal Care and Use Committee at the Kaohsiung Medical University. The male Wistar rats, weighing 250-350 g, are provided by the National Laboratory Animal Breeding and Research Center (Taipei, Taiwan). The rats are housed under conditions of constant temperature and controlled illumination (light regime of 12 h light and 12 h darkness). The rats are allowed food and water ad libitum. They are anesthetized with an intraperitoneal (i.p.) injection of pentobarbital sodium (50 mg/kg). Following tracheal cannulation, systemic arterial blood pressure and heart rate are recorded from the femoral artery with a pressure transducer (Spectramed, Model P10EZ, USA). Body temperature is maintained at 37° C. by an electric heating pad. A femoral vein is cannulated for the administration of LPS (E. coli serotype 026:B6), HBCM, baicalin, or dexamethasone (DEXA), respectively. The rats are injected intravenously with either saline (0.1 ml/kg) or LPS (10 mg/kg) for control and experimental purposes, respectively. All the animals are assigned to one of the following groups: saline only, LPS/saline, LPS/HBCM (75 mg/kg), LPS/baicalin (1.5 mg/kg), and LPS/DEXA (0.5 mg/kg) groups. LPS is injected at a dose of 10 mg/kg, after 10 min, HBCM, baicalin and DEXA are given, respectively.
A single injection of LPS (10 mg/kg, i.v.) leads to a biphasic arterial hypotension: an initial and transient decrease in arterial mean blood pressure (about 10 min), followed by a delayed and prolonged hypotension. The HBCM (75 mg/kg, i.v.), baicalin (1.5 mg/kg, i.v.) and DEXA (0.5 mg/kg, i.v.) are administrated 10 min after LPS administration. The used dose of baicalin is according to the content of baicalin in HBCM by the HPLC method. Separate groups are used for acute survival study (n=10 each), lung tissue sampling (n=10 each), and blood sampling (n=10 each). […]
The animals without pulmonary are monitored per 30 minutes for 7 hours after LPS administration. The blood pressure (BP) changes were recorded within 5 hours after LPS injection. […]

Wistar rats [2] = assay: Attenuation of LPS-induced arterial hypotension (post-treatment); details: HBCM 75 mg/kg, baicalin 1.5 mg/kg, DEXA 0.5 mg/kg i.v. 10 min after LPS 10 mg/kg i.v.; FIG. 3
Protocol: as §1, with “given, respectively. […]” for “given, respectively.”

Wistar rats [3] = assay: LPS-induced lung edema (wet/dry weight ratio); details: 5 hours after LPS; HBCM, baicalin, DEXA given 10 min after LPS; FIG. 7
Protocol: as §1, with “The rats are injected intravenously with either saline (0.1 ml/kg) or LPS (10 mg/kg) for control and experimental purposes, respectively. All the animals are assigned to one of the following groups: saline only, LPS/saline, LPS/HBCM (75 mg/kg), LPS/baicalin (1.5 mg/kg), and LPS/DEXA (0.5 mg/kg) groups. LPS is injected at a dose of 10 mg/kg, after 10 min, HBCM, baicalin and DEXA are given, respectively.” left out
The water content of the lungs is determined by calculating the wet/dry weight ratio of lung tissues at 5 hours after LPS administration. […] The dry weight is determined after the lung is dried at 80° C. for 72 hours, and the edema index (wet/dry weight ratio) is calculated by dividing the wet weight by the dry weight. The edema index indicates the water content of the lung, which is determined by calculating the wet/dry weight ratio of lung tissues at 5 hours after LPS administration.

iNOS = assay: LPS-induced iNOS in lung tissues (western blot); details: 5 h after LPS 10 mg/kg; HBCM 75, baicalin 1.5, DEXA 0.5 mg/kg post-treatment; FIG. 8
Protocol: as §1, with “All the animals are assigned to one of the following groups: saline only, LPS/saline, LPS/HBCM (75 mg/kg), LPS/baicalin (1.5 mg/kg), and LPS/DEXA (0.5 mg/kg) groups. LPS is injected at a dose of 10 mg/kg, after 10 min, HBCM, baicalin and DEXA are given, respectively.” left out
(§2) The HBCM, baicalin and DEXA are post-treated 10 minutes after the administration of LPS. […] The expression of each protein is detected by enhanced chemiluminescence using Hyperfilm and ECL reagent (Amersham, UK).

[4] = system: phosphorylated p38 MAP kinase; assay: LPS-induced phosphorylated p38 MAP kinase in lung tissues (western blot); details: 5 h after LPS 10 mg/kg; HBCM 75, baicalin 1.5, DEXA 0.5 mg/kg post-treatment; FIG. 8
Protocol: as §1, with “All the animals are assigned to one of the following groups: saline only, LPS/saline, LPS/HBCM (75 mg/kg), LPS/baicalin (1.5 mg/kg), and LPS/DEXA (0.5 mg/kg) groups. LPS is injected at a dose of 10 mg/kg, after 10 min, HBCM, baicalin and DEXA are given, respectively.” left out
as §2

TGF-β = assay: LPS-induced TGF-β in lung tissues (western blot); details: 5 h after LPS 10 mg/kg; HBCM 75, baicalin 1.5, DEXA 0.5 mg/kg post-treatment; FIG. 8
Protocol: as §1, with “All the animals are assigned to one of the following groups: saline only, LPS/saline, LPS/HBCM (75 mg/kg), LPS/baicalin (1.5 mg/kg), and LPS/DEXA (0.5 mg/kg) groups. LPS is injected at a dose of 10 mg/kg, after 10 min, HBCM, baicalin and DEXA are given, respectively.” left out
as §2

ICAM-1 = assay: LPS-induced ICAM-1 in lung tissues (western blot); details: 5 h after LPS 10 mg/kg; HBCM 75, baicalin 1.5, DEXA 0.5 mg/kg post-treatment; FIG. 8
Protocol: as §1, with “All the animals are assigned to one of the following groups: saline only, LPS/saline, LPS/HBCM (75 mg/kg), LPS/baicalin (1.5 mg/kg), and LPS/DEXA (0.5 mg/kg) groups. LPS is injected at a dose of 10 mg/kg, after 10 min, HBCM, baicalin and DEXA are given, respectively.” left out
as §2

TNF-α = assay: LPS-induced plasma TNF-α immunoreactivity (post-treatment, ELISA); details: LPS 10 mg/kg i.v.; HBCM 75, baicalin 1.5, DEXA 0.5 mg/kg 10 min after LPS; FIG. 9
Protocol: as §1, with “given, respectively. […]” for “given, respectively.”

IL-1β = assay: LPS-induced plasma IL-1β immunoreactivity (post-treatment, ELISA); details: LPS 10 mg/kg i.v.; post-treatment 10 min after LPS; up to 5 hours; FIG. 9
Protocol: as §1, with “given, respectively. […]” for “given, respectively.”

MCP-1 = assay: LPS-induced plasma MCP-1 immunoreactivity (post-treatment, ELISA); details: LPS 10 mg/kg i.v.; post-treatment 10 min after LPS; up to 5 hours; FIG. 9
Protocol: as §1, with “given, respectively. […]” for “given, respectively.”

SMILES | time all the rats survive (Wistar rats [1]; LPS 10 mg/kg, DEXA 0.5 mg/kg i.v. 10 min after LPS, n=10) | LPS-induced prolonged arterial hypotension (Wistar rats [2]) | survival for 7 hours (Wistar rats [1]; LPS 10 mg/kg, HBCM 75 mg/kg or baicalin 1.5 mg/kg i.v. 10 min after LPS, n=10) [%] | survival rate compared with LPS/saline group (Wistar rats [1]; post-treatment 10 min after LPS 10 mg/kg, FIG. 6) | LPS-induced lung edema (wet/dry weight ratio) (Wistar rats [3]) | LPS-induced iNOS expression in lung tissues (iNOS) | LPS-induced phosphorylated p38 MAP kinase expression in lung tissues [4] | LPS-induced TGF-β expression in lung tissues (TGF-β) | LPS-induced ICAM-1 expression in lung tissues (ICAM-1) | elevation of plasma TNF-α vs LPS/saline group (TNF-α) | elevation of plasma IL-1β vs LPS/saline group (IL-1β) | elevation of plasma MCP-1 vs LPS/saline group (MCP-1)
C[C@@H]1C[C@H]2[C@@H]3CCC4=CC(=O)C=C[C@]4(C)[C@@]3(F)[C@@H](O)C[C@]2(C)[C@@]1(O)C(=O)CO [DEXA, dexamethasone] | more than 7 hours | – | – | – | – | – | – | – | – | – | – | –
O=C(O)[C@H]1O[C@@H](Oc2cc3oc(-c4ccccc4)cc(=O)c3c(O)c2O)[C@H](O)[C@@H](O)[C@@H]1O [baicalin] | – | significantly attenuates | 90 | significantly better survival rate | significantly attenuates | significant inhibition | significant inhibition | significant inhibition | significant inhibition | significantly lower | lower | lower
